From ChEMBL document CHEMBL4364243, “Structure-activity relationships of potentiators of the antibiotic activity of clarithromycin against Escherichia coli” (2019)
In brackets after ≈: the same amount, converted by molar mass. Activity calls are given as the source filed them. The calls are words filed in the database; no cut-off is given here. Bridge positions count the residues as written; N and C are the ends. Square brackets hold non-standard residues; d marks the D form. Peptide text beside a SMILES is read from it. * marks the point of attachment. X1 = CC[C@H](C)CCCCC(=O)*; βNA = c1ccc2cc(N*)ccc2c1; Dab = NCC[C@H](N)C(=O)O

How the values were obtained:
Pseudomonas aeruginosa = experiment: Potentiation of levofloxacin-induced antibacterial activity against Pseudomonas aeruginosa assessed as concentration required to decrease levofloxacin MIC by 8 fold in presence of levofloxacin; format: functional; conditions: read-out: MEC
Escherichia coli [1] = experiment: Antibacterial activity against Escherichia coli ATCC 25922 incubated for 24 hrs by serial dilution method; format: functional; conditions: ATCC 25922, 24 h
Escherichia coli [2] = experiment: Potentiation of clarithromycin-induced antibacterial activity against Escherichia coli ATCC 25922 assessed as clarithromycin MIC at 12.5 ug/ml incubated for 24 hrs by microtiter plate reader analysis (reference value: 64 microg/ml); format: functional; conditions: ATCC 25922, 24 h
Escherichia coli [3] = experiment: Potentiation of clarithromycin-induced antibacterial activity against Escherichia coli ATCC 25922 assessed as fold reduction in clarithromycin MIC at 12.5 ug/ml incubated for 24 hrs in presence of clarithromycin; format: functional
[4] = system: Escherichia coli ATCC 25922; experiment: Induction of outer membrane permeabilization/inhibition of AcrAB-TolC efflux pump in Escherichia coli ATCC 25922 assessed as increase in NPN uptake incubated for 10 mins in dark by fluorescence assay
Escherichia coli [5] = experiment: Induction of inner membrane permeabilization in Escherichia coli ATCC 25922 assessed as increase in propidium iodide uptake at 1/32 to 1/2 times MIC by PI staining based flow cytometric analysis; format: organism-based
[6] = system: Escherichia coli ATCC 25922; experiment: Inhibition of efflux pump in CCCP-pretreated Escherichia coli ATCC 25922 assessed as […] by measuring decrease in fluorescence intensity pre-incubated for 5 mins followed by glucose addition by Hoechst 33342 staining based fluorescence assay
Escherichia coli [7] = experiment: Potentiation of calrithromycin-induced antibacterial activity against Escherichia coli ATCC 25922 assessed as clarithromycin MIC at 50 ug/ml incubated for 24 hrs by microtiter plate reader analysis (reference value: 64 microg/ml); format: functional; conditions: ATCC 25922, 24 h
Escherichia coli [8] = experiment: Potentiation of clarithromycin-induced antibacterial activity against Escherichia coli ATCC 25922 assessed as fold reduction in clarithromycin MIC at 50 ug/ml incubated for 24 hrs in presence of clarithromycin; format: functional
[9] = system: Escherichia coli ATCC 25922; experiment: Induction of outer membrane permeabilization/inhibition of AcrAB-TolC efflux pump in Escherichia coli ATCC 25922 assessed as increase in NPN uptake at 1/32 to 1/2 times MIC incubated for 10 mins in dark by fluorescence assay

SMILES: NCCC[C@@H](N)C(=O)N[C@H](CCc1ccccc1)CSc1ccc(Cl)cc1
- minimal effective concentration (Pseudomonas aeruginosa): 1.25 µg/mL

SMILES: NCC[C@H](N)CCNC(CCc1ccccc1)CCc1ccccc1
- MIC (Escherichia coli [1]): 100 mg/L (≈ 295 µM)
- MIC (Escherichia coli [2]): 2 mg/L
- fold change (FC) (Escherichia coli [3]): 32
- Activity [4]: Dose-dependent effect
- Activity (Escherichia coli [5]): inactive
- inhibition [6]: Dose-dependent effect

SMILES: CC[C@H]1OC(=O)[C@H](C)[C@@H](O[C@H]2C[C@@](C)(OC)[C@@H](O)[C@H](C)O2)[C@H](C)[C@@H](O[C@@H]2O[C@H](C)C[C@H](N(C)C)[C@H]2O)[C@](C)(OC)C[C@@H](C)C(=O)[C@H](C)[C@@H](O)[C@]1(C)O [CLARITHROMYCIN]
- MIC (Escherichia coli [1]): 64 mg/L (≈ 85.6 µM)

SMILES: CN(C(=O)[C@@H](N)CCCN)C(CCc1ccccc1)CCc1ccccc1
- MIC (Escherichia coli [1]): > 100 mg/L
- MIC (Escherichia coli [2]): 32 mg/L
- fold change (FC) (Escherichia coli [3]): 2

SMILES: NCCC[C@H](N)C(=O)NC(c1ccccc1)c1ccccc1
- MIC (Escherichia coli [1]): > 100 mg/L
- MIC (Escherichia coli [2]): 64 mg/L
- fold change (FC) (Escherichia coli [3]): 1

SMILES: NC[C@@H](N)CCCNC(CCc1ccccc1)CCc1ccccc1
- MIC (Escherichia coli [1]): 25 mg/L (≈ 73.6 µM)
- MIC (Escherichia coli [2]): 4 mg/L
- fold change (FC) (Escherichia coli [3]): 16

SMILES: CN(C)CCC[C@H](N)C(=O)NC(CCc1ccccc1)CCc1ccccc1
- MIC (Escherichia coli [1]): > 100 mg/L
- MIC (Escherichia coli [2]): 64 mg/L
- fold change (FC) (Escherichia coli [3]): 1

SMILES: COc1ccc(CN2CCN(C(CCc3ccccc3)CCc3ccccc3)CC2)cc1
- MIC (Escherichia coli [1]): > 100 mg/L
- MIC (Escherichia coli [2]): 64 mg/L
- fold change (FC) (Escherichia coli [3]): 1

SMILES: NCCC[C@H](N)CNC(CCc1ccccc1)CCc1ccccc1
- MIC (Escherichia coli [1]): 25 mg/L (≈ 73.6 µM)
- MIC (Escherichia coli [2]): 8 mg/L
- fold change (FC) (Escherichia coli [3]): 8

SMILES: NC[C@@H](N)CCNC(CCc1ccccc1)CCc1ccccc1
- MIC (Escherichia coli [1]): 100 mg/L (≈ 307 µM)
- MIC (Escherichia coli [2]): 32 mg/L
- fold change (FC) (Escherichia coli [3]): 2

SMILES: NCC[C@H](N)CC(=O)NC(CCc1ccccc1)CCc1ccccc1
- MIC (Escherichia coli [1]): 100 mg/L (≈ 283 µM)
- MIC (Escherichia coli [2]): 4 mg/L
- fold change (FC) (Escherichia coli [3]): 16

SMILES: NCCC[C@@H](N)C(=O)NC(CCc1ccccc1)CCc1ccccc1
- MIC (Escherichia coli [1]): > 100 mg/L
- MIC (Escherichia coli [2]): 32 mg/L
- fold change (FC) (Escherichia coli [3]): 2

SMILES: CN(C(=O)[C@@H](N)CCCN)C(c1ccccc1)c1ccccc1
- MIC (Escherichia coli [1]): > 100 mg/L
- MIC (Escherichia coli [2]): 32 mg/L
- fold change (FC) (Escherichia coli [3]): 2

SMILES: NCC[C@H](N)C(=O)NC(CCc1ccccc1)CCc1ccccc1
- MIC (Escherichia coli [1]): 100 mg/L (≈ 295 µM)
- MIC (Escherichia coli [2]): 32 mg/L
- fold change (FC) (Escherichia coli [3]): 2

SMILES: NCCC[C@@H](N)C(=O)N[C@H](CCc1ccccc1)C(=O)Nc1ncc(C(=O)Nc2cnc3ccccc3c2)o1
- minimal effective concentration (Pseudomonas aeruginosa): 5 µg/mL

SMILES: NCCC[C@H](N)C(=O)NC(Cc1ccccc1)Cc1ccccc1
- MIC (Escherichia coli [1]): > 100 mg/L
- MIC (Escherichia coli [2]): 32 mg/L
- fold change (FC) (Escherichia coli [3]): 2

SMILES: NC[C@@H](N)CC(=O)NC(CCc1ccccc1)CCc1ccccc1
- MIC (Escherichia coli [1]): 200 mg/L (≈ 589 µM)
- MIC (Escherichia coli [2]): 64 mg/L
- fold change (FC) (Escherichia coli [3]): 1

SMILES: NCC[C@H](N)CNC(CCc1ccccc1)CCc1ccccc1
- MIC (Escherichia coli [1]): 100 mg/L (≈ 307 µM)
- MIC (Escherichia coli [2]): 16 mg/L
- fold change (FC) (Escherichia coli [3]): 4

SMILES: NCCC[C@@H](N)C(=O)N[C@H](CCc1ccccc1)C(=O)Nc1cnc2ccccc2c1
- minimal effective concentration (Pseudomonas aeruginosa): 10 µg/mL

SMILES: NCCC[C@H](NC(=O)[C@@H](N)Cc1ccccc1)C(=O)Nc1ccc2ccccc2c1
- minimal effective concentration (Pseudomonas aeruginosa): 5 µg/mL

SMILES: CNCCC[C@H](N)C(=O)NC(CCc1ccccc1)CCc1ccccc1
- MIC (Escherichia coli [1]): 100 mg/L (≈ 272 µM)
- MIC (Escherichia coli [2]): 64 mg/L
- fold change (FC) (Escherichia coli [3]): 1

SMILES: CN(C(=O)[C@@H](N)CCCN)C(Cc1ccccc1)Cc1ccccc1
- MIC (Escherichia coli [1]): > 100 mg/L
- MIC (Escherichia coli [2]): 32 mg/L
- fold change (FC) (Escherichia coli [3]): 2

SMILES: NCCC[C@H](N)C(=O)NC(CCc1ccccc1)CCc1ccccc1
- MIC (Escherichia coli [1]): > 100 mg/L
- MIC (Escherichia coli [2]): 16 mg/L
- fold change (FC) (Escherichia coli [3]): 4

SMILES: NC[C@@H](N)CCC(=O)NC(CCc1ccccc1)CCc1ccccc1
- MIC (Escherichia coli [1]): 100 mg/L (≈ 283 µM)
- MIC (Escherichia coli [2]): 32 mg/L
- fold change (FC) (Escherichia coli [3]): 2

SMILES: N=C(N)NCCC[C@H](NC(=O)[C@@H](N)Cc1ccccc1)C(=O)Nc1ccc2ccccc2c1 [PABETAN] (H-Phe-Arg-βNA)
- MIC (Escherichia coli [1]): > 100 mg/L
- MIC (Escherichia coli [7]): 16 mg/L
- fold change (FC) (Escherichia coli [8]): 4
- minimal effective concentration (Pseudomonas aeruginosa): 10 µg/mL

SMILES: N=C(N)NCCC[C@H](N)C(=O)NC(CCc1ccccc1)CCc1ccccc1
- MIC (Escherichia coli [1]): > 100 mg/L
- MIC (Escherichia coli [2]): 32 mg/L
- fold change (FC) (Escherichia coli [3]): 2

SMILES: CN1CCN(C(CCc2ccccc2)CCc2ccccc2)CC1
- MIC (Escherichia coli [1]): > 100 mg/L
- MIC (Escherichia coli [2]): 64 mg/L
- fold change (FC) (Escherichia coli [3]): 1

SMILES: CC[C@H](C)CCCCC(=O)N[C@@H](CCN)C(=O)N[C@H](C(=O)N[C@@H](CCN)C(=O)N[C@H]1CCNC(=O)[C@H]([C@@H](C)O)NC(=O)[C@H](CCN)NC(=O)[C@H](CCN)NC(=O)[C@H](CC(C)C)NC(=O)[C@@H](Cc2ccccc2)NC(=O)[C@H](CCN)NC1=O)[C@@H](C)O (X1-[Dab]T[Dab][Dab][Dab][dF]L[Dab][Dab]T; lactam 4-C)
- MIC (Escherichia coli [1]): 1.56 mg/L (≈ 1.3 µM)
- Activity [9]: Active
- Activity (Escherichia coli [5]): Active

SMILES: NCCC[C@@H](N)C(=O)N[C@H](CCc1ccccc1)COc1ccc(Cl)cc1
- minimal effective concentration (Pseudomonas aeruginosa): 5 µg/mL
